Measured values reported in ChEMBL document CHEMBL5226347, “Discovery of Chromane-6-Sulfonamide Derivative as a Potent, Selective, and Orally Available Novel Retinoic Acid Receptor-Related Orphan Receptor γt Inverse Agonist” (J Med Chem, 2021).
In brackets after ≈: the same amount, converted by molar mass.

Target: T1, Nuclear receptor ROR-gamma (Homo sapiens, UniProt P51449)
T1 sequence (P51449 whole entry): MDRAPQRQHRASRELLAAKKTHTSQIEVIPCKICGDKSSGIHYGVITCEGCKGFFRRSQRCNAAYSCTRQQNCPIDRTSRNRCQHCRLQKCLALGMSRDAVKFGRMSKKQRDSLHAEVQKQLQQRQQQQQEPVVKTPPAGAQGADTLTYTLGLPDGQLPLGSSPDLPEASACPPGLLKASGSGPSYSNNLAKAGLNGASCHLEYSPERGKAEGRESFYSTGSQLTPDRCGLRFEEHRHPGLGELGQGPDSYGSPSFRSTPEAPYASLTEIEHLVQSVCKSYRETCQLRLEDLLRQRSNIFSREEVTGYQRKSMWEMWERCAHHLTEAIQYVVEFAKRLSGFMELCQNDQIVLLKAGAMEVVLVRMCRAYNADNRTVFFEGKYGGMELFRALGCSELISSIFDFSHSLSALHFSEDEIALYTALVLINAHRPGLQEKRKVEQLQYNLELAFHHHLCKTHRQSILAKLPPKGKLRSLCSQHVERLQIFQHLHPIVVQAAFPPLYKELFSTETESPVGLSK
Test: Displacement of BODIPY from APC-labelled human RORgammat LBD incubated for 15 mins by LANCE detection analysis
Details: not given

| Structure (SMILES) | IC50 [µM] |
| --- | --- |
| O=S(=O)(Nc1ccccc1C(F)(F)F)c1ccc2c(c1)C(O)CC(C1CCOCC1)O2 (centres undefined) | > 10 |
| CCS(=O)(=O)c1ccc(CN(CC(C)C)S(=O)(=O)c2ccc3c(c2)C(O)CC(C2CCOCC2)O3)nc1 (centres undefined) | > 10 |
| O=S(=O)(c1ccc2c(c1)C(O)CC(C1CCOCC1)O2)N1CCC(c2ccccc2)CC1 (centres undefined) | > 10 |

System: not listed separately
Test: Lipophilicity, log D of the compound at pH 7.4
Type: physicochemical
Details: buffer

| Structure (SMILES) | logD |
| --- | --- |
| CCc1ccc(N(CC(C)C)S(=O)(=O)c2ccc(OCC3CCOCC3)c3c2CCCC3O)cc1 (centres undefined) | 4.95 |
| CCc1ccc(N(C2COC2)S(=O)(=O)c2ccc3c(c2)C(O)CC(C2CCOCC2)O3)cc1 (centres undefined) | 2.63 |
| CCc1ccc(N(Cc2ccccc2)S(=O)(=O)c2ccc3c(c2)C(O)CC(C2CCOCC2)O3)cc1 (centres undefined) | 4.68 |
| CCc1ccc(N(CC(C)C)S(=O)(=O)c2ccc3c(c2)C(OC)CC(C2CCOCC2)O3)cc1 (centres undefined) | 4.69 |
| CCc1ccc2c(c1)CC(C)CN2S(=O)(=O)c1ccc2c(c1)C(O)CC(C1CCOCC1)O2 (centres undefined) | 3.68 |
| CCc1ccc(N(CC(C)C)S(=O)(=O)c2ccc(OCC3CCOCC3)c(CN)c2)cc1 | 3.25 |
| CCc1ccc(N(CC(F)(F)F)S(=O)(=O)c2ccc3c(c2)C(O)CC(C2CCOCC2)O3)cc1 (centres undefined) | 3.88 |
| CCc1ccc(N(CC(C)C)S(=O)(=O)c2ccc3c(c2)C(O)CC(C2CCN(C)CC2)O3)cc1 (centres undefined) | 2.67 |
| CCc1ccc(N(CC(C)C)S(=O)(=O)c2ccc3c(c2)C(OC2CCCCC2)CC(C2CCOCC2)O3)cc1 (centres undefined) | 6.28 |
| CCc1ccc(N(CC2CCC2)S(=O)(=O)c2ccc3c(c2)C(O)CC(C2CCOCC2)O3)cc1 (centres undefined) | 4.01 |
| CC(C)CN(c1ccc(C#N)cc1)S(=O)(=O)c1ccc2c(c1)C(O)CC(C1CCOCC1)O2 (centres undefined) | 3.07 |
| CCc1ccc(N(CC(C)C)S(=O)(=O)c2ccc3c(c2)C=CC(C2CCOCC2)O3)cc1 (centres undefined) | 5.52 |
| O=S(=O)(Nc1ccccc1C(F)(F)F)c1ccc2c(c1)C(O)CC(C1CCOCC1)O2 (centres undefined) | 2.41 |
| CCc1ccc(N(CC(C)C)S(=O)(=O)c2ccc(OCC3CCOCC3)c(CO)c2)cc1 [GSK2981278] | 4.1 |
| CC(C)CN(c1ccccc1C(F)(F)F)S(=O)(=O)c1ccc2c(c1)C(O)CC(C1CCOCC1)O2 (centres undefined) | 4.14 |
| CC(C)CN(Cc1ccccc1C(F)(F)F)S(=O)(=O)c1ccc2c(c1)C(O)CC(C1CCOCC1)O2 (centres undefined) | 4.23 |
| CC(C)CN(c1ccc(N(C)C)cc1)S(=O)(=O)c1ccc2c(c1)C(O)CC(C1CCOCC1)O2 (centres undefined) | 3.51 |
| Cc1ccc(N(C2CCC2)S(=O)(=O)c2ccc3c(c2)C(O)CC(C2CCOCC2)O3)c(C)c1 (centres undefined) | 3.77 |
| CCS(=O)(=O)c1ccc(CN(CC(C)C)S(=O)(=O)c2ccc3c(c2)C(O)CC(C2CCOCC2)O3)nc1 (centres undefined) | 1.42 |
| CC(C)CN(c1cccc(F)c1)S(=O)(=O)c1ccc2c(c1)C(O)CC(C1CCOCC1)O2 (centres undefined) | 3.39 |
| CCc1ccc(N(CC(C)C)S(=O)(=O)c2ccc3c(c2)C(O)CC(C2CCNCC2)O3)cc1 (centres undefined) | 1.04 |
| CC(C)CN(c1ccccc1F)S(=O)(=O)c1ccc2c(c1)C(O)CC(C1CCOCC1)O2 (centres undefined) | 3.39 |
| O=S(=O)(c1ccc2c(c1)C(O)CC(C1CCOCC1)O2)N1CCC(c2ccccc2)CC1 (centres undefined) | 2.63 |

| Structure (SMILES) | logD |
| --- | --- |
| CCc1ccc(N(CC(C)C)S(=O)(=O)c2ccc3c(c2)C(O)CC(CC2CCOCC2)O3)cc1 (centres undefined) | 4.44 |
| CC(C)CN(c1ccc(F)cc1)S(=O)(=O)c1ccc2c(c1)C(O)CC(C1CCOCC1)O2 (centres undefined) | 3.39 |
| Cc1ccc(N(CC(C)C)S(=O)(=O)c2ccc3c(c2)C(O)CC(C2CCOCC2)O3)c(C)c1 (centres undefined) | 4.19 |
| CCc1ccc(N(CC(C)C)S(=O)(=O)c2ccc3nc(C4CCOCC4)cc(O)c3c2)cc1 | 4.97 |
| CCc1ccc(N(CC(C)C)S(=O)(=O)c2ccc3c(c2)C(O)CC(C2CCOCC2)O3)cc1 (centres undefined) | 4.12 |
| CCc1ccc(N(CC(C)C)S(=O)(=O)c2ccc3c(c2)C(O)CC(C2CCN(C(=O)C4CCCC4)CC2)O3)cc1 (centres undefined) | 5.04 |
| CC(C)CN(c1cc2ccccc2s1)S(=O)(=O)c1ccc2c(c1)C(O)CC(C1CCOCC1)O2 (centres undefined) | 3.92 |
| CC(C)CN(c1ccc(F)cc1F)S(=O)(=O)c1ccc2c(c1)C(O)CC(C1CCOCC1)O2 (centres undefined) | 3.53 |
| Cc1cc(C(O)(C(F)(F)F)C(F)(F)F)ccc1N(CC(C)C)S(=O)(=O)c1ccc2c(c1)C(O)CC(C1CCOCC1)O2 (centres undefined) | 4.37 |
| CCc1ccc(N(CC(C)C)S(=O)(=O)c2ccc3c(c2)C(O)CC(C2CCN(S(C)(=O)=O)CC2)O3)cc1 (centres undefined) | 3.22 |
| CC(C)CN(C1CCc2ccc(F)cc21)S(=O)(=O)c1ccc2c(c1)C(O)CC(C1CCOCC1)O2 (centres undefined) | 3.94 |
| CCc1ccc(N(CC(C)C)S(=O)(=O)c2ccc3c(c2)C(C)(O)CC(C2CCOCC2)O3)cc1 (centres undefined) | 4.19 |
| O=S(=O)(c1ccc2c(c1)C(O)CC(C1CCOCC1)O2)N1CCCC1c1ccccc1C(F)(F)F (centres undefined) | 3.41 |
| CCc1ccc(N(CC(C)C)S(=O)(=O)c2ccc3c(c2)C(N)CC(C2CCOCC2)O3)cc1 (centres undefined) | 3.08 |
| CCc1ccc(N(CC(C)C)S(=O)(=O)c2ccc3c(c2)C(C)CC(C2CCOCC2)O3)cc1 (centres undefined) | 5.71 |
| CCc1ccc(N(CC(C)C)S(=O)(=O)c2ccc3c(c2)C(O)C[C@H](C2CCOCC2)O3)cc1 (some centres undefined) | 4.12 |
| CCc1ccc(N(CC(C)C)S(=O)(=O)c2ccc(OCC3CCOCC3)c3c2CCC3O)cc1 (centres undefined) | 4.55 |
| CCc1ccc(N(CC(C)C)S(=O)(=O)c2ccc3c(c2)C(O)CC(C(C)C2CCOCC2)O3)cc1 (centres undefined) | 5.04 |
| CCc1ccc(NS(=O)(=O)c2ccc3c(c2)C(O)CC(C2CCOCC2)O3)cc1 (centres undefined) | 2.59 |
| CCc1ccc(N(CC(C)C)S(=O)(=O)c2ccc3c(c2)C(O)C[C@@H](C2CCOCC2)O3)cc1 (some centres undefined) | 4.12 |
| CCc1ccc(N(CC(C)C)S(=O)(=O)c2ccc3c(c2)CCC3OC2CCOCC2)cc1 (centres undefined) | 4.96 |
| CCc1ccc(N(CC(C)C)S(=O)(=O)c2ccc3c(c2)CCC(C2CCOCC2)O3)cc1 (centres undefined) | 5.38 |

Target: T1, Nuclear receptor ROR-gamma
Test: Inhibition of RORgammat in human Jurkat cells assessed as inhibition of RORgammat transcriptional activity incubated for 10 mins by luciferase reporter gene assay
Type: cell-based
Details: not given

| Structure (SMILES) | IC50 [µM] |
| --- | --- |
| O=S(=O)(Nc1ccccc1C(F)(F)F)c1ccc2c(c1)C(O)CC(C1CCOCC1)O2 (centres undefined) | > 10 |
| CCS(=O)(=O)c1ccc(CN(CC(C)C)S(=O)(=O)c2ccc3c(c2)C(O)CC(C2CCOCC2)O3)nc1 (centres undefined) | > 10 |
| O=S(=O)(c1ccc2c(c1)C(O)CC(C1CCOCC1)O2)N1CCC(c2ccccc2)CC1 (centres undefined) | > 10 |

System: not listed separately
Test: Metabolic stability in human liver microsomes assessed as half life incubated for 5 to 30 mins by HPLC-MS/MS analysis
Type: ADME, Microsome
Details: liver microsomes, time 5-30 min

| Structure (SMILES) | half-life [min] |
| --- | --- |
| CCc1ccc(N(CC(C)C)S(=O)(=O)c2ccc3c(c2)C(O)CC(C2CCOCC2)O3)cc1 (centres undefined) | 222 |

Same assay, conditions: microsomes, time 5-30 min

| Structure (SMILES) | t1/2 [min] |
| --- | --- |
| CC(C)CN(c1ccc(C#N)cc1)S(=O)(=O)c1ccc2c(c1)C(O)CC(C1CCOCC1)O2 (centres undefined) | 0.8 |
| CCc1ccc(N(CC(C)C)S(=O)(=O)c2ccc(OCC3CCOCC3)c(CO)c2)cc1 [GSK2981278] | 0.8 |
| CC(C)CN(c1cc2ccccc2s1)S(=O)(=O)c1ccc2c(c1)C(O)CC(C1CCOCC1)O2 (centres undefined) | 25.2 |
| O=S(=O)(c1ccc2c(c1)C(O)CC(C1CCOCC1)O2)N1CCCC1c1ccccc1C(F)(F)F (centres undefined) | 7.6 |

System: not listed separately
Test: Metabolic stability in human liver assessed as intrinsic clearance incubated for 5 to 30 mins by HPLC-MS/MS analysis
Type: ADME, tissue-based
Details: liver (preparation not stated), time 5-30 min, read-out: CLH

| Structure (SMILES) | CLint scaled [mL/min/kg] |
| --- | --- |
| CC(C)CN(c1ccc(C#N)cc1)S(=O)(=O)c1ccc2c(c1)C(O)CC(C1CCOCC1)O2 (centres undefined) | 1520 |
| CCc1ccc(N(CC(C)C)S(=O)(=O)c2ccc(OCC3CCOCC3)c(CO)c2)cc1 [GSK2981278] | 1610 |
| CCc1ccc(N(CC(C)C)S(=O)(=O)c2ccc3c(c2)C(O)CC(C2CCOCC2)O3)cc1 (centres undefined) | 330 |
| CC(C)CN(c1cc2ccccc2s1)S(=O)(=O)c1ccc2c(c1)C(O)CC(C1CCOCC1)O2 (centres undefined) | 53.7 |
| O=S(=O)(c1ccc2c(c1)C(O)CC(C1CCOCC1)O2)N1CCCC1c1ccccc1C(F)(F)F (centres undefined) | 172 |

System: not listed separately
Test: Metabolic stability in human liver microsomes assessed as parent compound remaining measured at 60 mins by HPLC-MS/MS analysis
Type: ADME, Microsome
Details: 1 h

| Structure (SMILES) | Stability [%] |
| --- | --- |
| CC(C)CN(c1ccc(C#N)cc1)S(=O)(=O)c1ccc2c(c1)C(O)CC(C1CCOCC1)O2 (centres undefined) | 0.3 |
| CCc1ccc(N(CC(C)C)S(=O)(=O)c2ccc(OCC3CCOCC3)c(CO)c2)cc1 [GSK2981278] | 0.2 |
| CC(C)CN(c1cc2ccccc2s1)S(=O)(=O)c1ccc2c(c1)C(O)CC(C1CCOCC1)O2 (centres undefined) | 28.5 |
| O=S(=O)(c1ccc2c(c1)C(O)CC(C1CCOCC1)O2)N1CCCC1c1ccccc1C(F)(F)F (centres undefined) | 5.2 |

System: not listed separately
Test: Solubility of compound in aqueous buffer at pH 7.4
Type: physicochemical
Details: not given

| Structure (SMILES) | solubility [µg/mL] |
| --- | --- |
| CCc1ccc(N(CC(C)C)S(=O)(=O)c2ccc(OCC3CCOCC3)c(CO)c2)cc1 [GSK2981278] | 2.12 (≈ 4.59 µM) |

System: Mus musculus
Test: Antiinflammatory activity against imiquimod-induced Balb/c mouse skin inflammation model assessed as reduction in severity index score at 20 mg/kg, po BID for 13 days
Type: functional
Design: scale not given: the % may be the effect or the level left
Details: time 13 day

| Structure (SMILES) | Activity [%] |
| --- | --- |
| CCc1ccc(N(CC(C)C)S(=O)(=O)c2ccc(OCC3CCOCC3)c(CO)c2)cc1 [GSK2981278] | 61.5 |

System: Mus musculus
Test: Antiinflammatory activity against imiquimod-induced Balb/c mouse skin inflammation model assessed as inhibition of IL-17A level at 20 mg/kg, po measured for 13 days
Type: functional
Design: scale not given: the % may be the effect or the level left
Details: time 13 day

| Structure (SMILES) | Activity [%] |
| --- | --- |
| CCc1ccc(N(CC(C)C)S(=O)(=O)c2ccc(OCC3CCOCC3)c(CO)c2)cc1 [GSK2981278] | 82.2 |

System: Mus musculus
Test: Antiinflammatory activity against imiquimod-induced Balb/c mouse skin inflammation model assessed as inhibition of IL-6 level at 20 mg/kg, po measured for 13 days
Type: functional
Design: scale not given: the % may be the effect or the level left
Details: time 13 day

| Structure (SMILES) | Activity [%] |
| --- | --- |
| CCc1ccc(N(CC(C)C)S(=O)(=O)c2ccc(OCC3CCOCC3)c(CO)c2)cc1 [GSK2981278] | 59.4 |
